Source: patent publication US7223753B2, “Diazabicyclic biaryl derivatives” (Neurosearch A/S, priority 2002, dated 2007)
Structures can show the parent of a compound that is named as a salt.

Target: T1, α7-subtype of nicotinic receptors (Rattus norvegicus, UniProt Q05941)
T1 construct: Cerebral cortices from male Wistar rats (150–250 g) are homogenised; from tissue; host or cells: rat cerebral cortex membrane homogenate
Assay: In vitro inhibition of 3H-α-bungarotoxine binding in rat brain
Settings: rat cerebral cortex homogenate; 3H-α-bungarotoxine 2 nM; 2 hours at 37° C

T1 sequence (Q05941 23-502): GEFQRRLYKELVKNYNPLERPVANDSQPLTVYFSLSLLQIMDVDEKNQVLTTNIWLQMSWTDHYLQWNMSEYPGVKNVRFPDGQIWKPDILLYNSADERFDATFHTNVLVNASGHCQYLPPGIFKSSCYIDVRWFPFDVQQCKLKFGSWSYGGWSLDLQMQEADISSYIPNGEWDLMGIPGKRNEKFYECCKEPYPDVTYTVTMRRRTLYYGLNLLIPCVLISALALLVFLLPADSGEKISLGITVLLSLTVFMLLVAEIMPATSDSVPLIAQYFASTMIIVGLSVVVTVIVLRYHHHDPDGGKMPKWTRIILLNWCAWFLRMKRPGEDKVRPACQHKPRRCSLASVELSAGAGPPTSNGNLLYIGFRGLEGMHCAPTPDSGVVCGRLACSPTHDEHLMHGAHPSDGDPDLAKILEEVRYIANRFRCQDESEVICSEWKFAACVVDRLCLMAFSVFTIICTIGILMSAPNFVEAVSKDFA

Question: Which IC50 does the source give for `c1cc(-c2ccc(N3CCN4CCC3CC4)nn2)cs1` [Compound 1, 4-[6-Thien-3-yl-pyridazin-3-yl]-1,4-diazabicyclo[3.2.2]nonane fumaric acid salt] here?
Answer: 38 nM

Question: With `c1ccc(-c2ccc(N3CCN4CCC3CC4)cc2)cc1` [Compound 34, 4-Biphenyl-4-yl-1,4-diazabicyclo[3.2.2]nonane fumaric acid salt] as the molecule, how does the IC50 read?
Answer: 24 nM

Question: For `c1c[se]c(-c2ccc(N3CCN4CCC3CC4)nn2)c1` [Compound 5, 4-(6-Selenophen-2-yl-pyridazin-3-yl)-1,4-diazabicyclo[3.2.2]nonane fumaric acid salt], which IC50 is on record?
Answer: 6.5 nM

Question: With `c1csc(-c2ccc(N3CCN4CCC3CC4)nn2)c1` [Compound 4, 4-(6-Thien-2-yl-pyridazin-3-yl)-1,4-diazabicyclo[3.2.2]nonane fumaric acid salt] as the molecule, how does the IC50 read?
Answer: 44 nM

Question: With `c1cc(-c2ccc(N3CCN4CCC3CC4)nn2)co1` [Compound 7, 4-(6-Furan-3-yl-pyridazin-3-yl)-1,4-diazabicyclo[3.2.2]nonane fumaric acid salt] as the molecule, how does the IC50 read?
Answer: 22 nM
